Experimental data taken from US9073821B2, “Hydroxamic acid derivative” (priority 2010, dated 2015).

Target: Pseudomonas aeruginosa LpxC enzyme (Pseudomonas aeruginosa (strain ATCC 15692 / DSM 22644 / CIP 104116 / JCM 14847 / LMG 12228 / 1C / PRS 101 / PAO1), UniProt P47205)
Assay: biochemical
Assay type: biochemical
Conditions: inhibitory activity on Pseudomonas aeruginosa LpxC enzyme, class symbols A/B/C; read-out: Enzyme inhibitory activity
Procedure: Test 1: Evaluation of the Inhibitory Activity on Pseudomonas aeruginosa LpxC Enzyme
An inhibition curve was constructed for each test compound by performing the aforementioned reaction at varying concentrations of the test compound. From this inhibition curve, the concentration of the test compound at which the formation of the reaction product was suppressed by 50% was determined as the IC50 of the test compound, which was an index for the inhibitory activity on Pseudomonas aeruginosa LpxC enzyme.

| Compound | IC50 [nM] |
| --- | --- |
| CNC(=O)C(C(=O)NO)N(C)C(=O)c1ccc(-c2cccc(O)c2)cc1 (stereo not shown) [Compound 48, N-hydroxy-2-{[(3′-hydroxybiphenyl-4-yl)carbonyl](methyl)amino}-N′-methylpropanediamide] | 10 to 100 |
| CNC(=O)C(C(=O)NO)N(C)C(=O)c1ccc(-c2ccc(O)cc2)cc1 (stereo not shown) [Compound 49, N-hydroxy-2-{[(4′-hydroxybiphenyl-4-yl)carbonyl](methyl)amino}-N′-methylpropanediamide] | 10 to 100 |
| CNC(=O)C(C(=O)NO)N(C)C(=O)c1ccc(-c2ccc(NC)c(OC)c2)cc1 (stereo not shown) [Compound 50, N-hydroxy-2-[{[3′-methoxy-4′-(methylamino)biphenyl-4-yl]carbonyl}(methyl)amino]-N′-methylpropanediamide] | 10 to 100 |
| CNC(=O)C(C(=O)NO)N(C)C(=O)c1ccc(-c2ccc(OC(F)F)cc2)cc1 (stereo not shown) [Compound 51, 2-[{[4′-(difluoromethoxy)biphenyl-4-yl]carbonyl}(methyl)amino]-N-hydroxy-N′-methylpropanediamide] | < 10 |
| CNC(=O)C(C(=O)NO)N(C)C(=O)c1ccc(-c2ccc(N3CCOCC3)cc2)cc1 (stereo not shown) [Compound 53, N-hydroxy-N′-methyl-2-(methyl {[4′-(morpholin-4-yl)biphenyl-4-yl]carbonyl}amino)propanediamide] | 10 to 100 |
| CNC(=O)C(C(=O)NO)N(C)C(=O)c1ccc(-c2ccc(N(C)C)c(F)c2)cc1 (stereo not shown) [Compound 54, 2-[{[4′-(dimethylamino)-3′-fluorobiphenyl-4-yl]carbonyl}(methyl)amino]-N-hydroxy-N′-methylpropanediamide] | 10 to 100 |
| CNC(=O)C(C(=O)NO)N(C)C(=O)c1ccc(-c2ccc(OC)c(OC)c2)cc1 (stereo not shown) [Compound 55, 2-{[(3′,4′-dimethoxybiphenyl-4-yl)carbonyl](methyl)amino}-N-hydroxy-N′-methylpropanediamide] | 10 to 100 |
| CNC(=O)C(C(=O)NO)N(C)C(=O)c1ccc(-c2ccc3c(c2)cc(C)n3C)cc1 (stereo not shown) [Compound 57, 2-{[4-(1,2-dimethyl-1H-indol-5-yl)benzoyl](methyl)amino}-N-hydroxy-N′-methylpropanediamide] | < 10 |
| CNC(=O)C(C(=O)NO)N(C)C(=O)c1ccc(-c2ccccc2F)cc1 (stereo not shown) [Compound 59, 2-{[(2′-fluorobiphenyl-4-yl)carbonyl](methyl)amino}-N-hydroxy-N′-methylpropanediamide] | < 10 |
| CNC(=O)C(C(=O)NO)N(C)C(=O)c1ccc(-c2ccc(Cc3nn[nH]n3)cc2)cc1 (stereo not shown) [Compound 60, N-hydroxy-N′-methyl-2-(methyl {[4′-(2H-tetrazol-5-ylmethyl)biphenyl-4-yl]carbonyl}amino)propanediamide] | > 100 |
| CN(C(=O)c1ccc(-c2ccccc2)cc1)C(C(=O)NO)C(=O)NCc1ccccc1 (stereo not shown) [Compound 62, N-benzyl-2-[(biphenyl-4-ylcarbonyl)(methyl)amino]-N′-hydroxypropanediamide] | > 100 |
| CNC(=O)C(C(=O)NO)N(C)C(=O)c1ccc(/C=C/c2ccccc2)cc1 (stereo not shown) [Compound 63, N-hydroxy-N′-methyl-2-(methyl {4-[(E)-2-phenylethenyl]benzoyl}amino)propanediamide] | 10 to 100 |
| CNC(=O)C(C(=O)NO)N(C)C(=O)c1ccc(-c2ccc(OCCCN(C)CCOC)cc2)cc1 (stereo not shown) [Compound 64, N-hydroxy-2-{[(4′-{3-[(2-methoxyethyl)(methyl)amino]propoxy}biphenyl-4-yl)carbonyl](methyl)amino}-N′-methylpropanediamide] | 10 to 100 |
| CNC(=O)C(C(=O)NO)N(C)C(=O)c1ccc(-c2ccc(NCc3cccnc3)cc2)cc1 (stereo not shown) [Compound 65, N-hydroxy-N′-methyl-2-[methyl({4′-[(pyridin-3-ylmethyl)amino]biphenyl-4-yl}carbonyl)amino]propanediamide] | < 10 |
| CNC(=O)C(C(=O)NO)N(C)C(=O)c1ccc(-c2ccc(NCCOC)c(F)c2)cc1 (stereo not shown) [Compound 66, 2-[({3′-fluoro-4′-[(2-methoxyethyl)amino]biphenyl-4-yl}carbonyl)(methyl)amino]-N-hydroxy-N′-methylpropanediamide] | < 10 |
| CNC(=O)C(C(=O)NO)N(C)C(=O)c1ccc(-c2cc(F)c(NC)cc2F)cc1 (stereo not shown) [Compound 67, 2-[{[2′,5′-difluoro-4′-(methylamino)biphenyl-4-yl]carbonyl}(methyl)amino]-N-hydroxy-N′-methylpropanediamide] | < 10 |
| CNC(=O)C(C(=O)NO)N(C)C(=O)c1ccc(-c2ccc(NC)c(C(F)(F)F)c2)cc1 (stereo not shown) [Compound 68, N-hydroxy-N′-methyl-2-(methyl{[4′-(methylamino)-3′-(trifluoromethyl)biphenyl-4-yl]carbonyl}amino)propanediamide] | < 10 |

| Compound | IC50 [nM] |
| --- | --- |
| CNC(=O)C(C(=O)NO)N(C)C(=O)c1ccc(-c2cc(F)c(NC)c(F)c2)cc1 (stereo not shown) [Compound 69, 2-[{[3′,5′-difluoro-4′-(methylamino)biphenyl-4-yl]carbonyl}(methyl)amino]-N-hydroxy-N′-methylpropanediamide] | < 10 |
| CNC(=O)C(C(=O)NO)N(C)C(=O)c1ccc(-c2ccc(OCCCN(C)Cc3ccccc3)cc2)cc1 (stereo not shown) [Compound 70, 2-{[(4′-{3-[benzyl(methyl)amino]propoxy}biphenyl-4-yl)carbonyl](methyl)amino}-N-hydroxy-N′-methylpropanediamide] | < 10 |
| CNC(=O)C(C(=O)NO)N(C)C(=O)c1ccc(-c2ccc(OCCCN3CCOC3=O)cc2)cc1 (stereo not shown) [Compound 71, N-hydroxy-N′-methyl-2-[methyl({4′-[3-(2-oxo-1,3-oxazolidin-3-yl)propoxy]biphenyl-4-yl}carbonyl)amino]propanediamide] | < 10 |
| CNC(=O)C(C(=O)NO)N(C)C(=O)c1ccc(-c2c(F)c(F)c(NC)c(F)c2F)cc1 (stereo not shown) [Compound 72, N-hydroxy-N′-methyl-2-(methyl {[2′,3′,5′,6′-tetrafluoro-4′-(methylamino)biphenyl-4-yl]carbonyl}amino)propanediamide] | < 10 |
| CNC(=O)C(C(=O)NO)N(C)C(=O)c1ccc(-c2ccccc2F)c(F)c1 (stereo not shown) [Compound 73, 2-{[(2,2′-difluorobiphenyl-4-yl)carbonyl](methyl)amino}-N-hydroxy-N′-methylpropanediamide] | < 10 |
| CNC(=O)C(C(=O)NO)N(C)C(=O)c1ccc(-c2ccc(CNCC(C)(C)C)cc2)cc1 (stereo not shown) [Compound 74, 2-{[(4′-{[(2,2-dimethylpropyl)amino]methyl}biphenyl-4-yl)carbonyl](methyl)amino}-N-hydroxy-N′-methylpropanediamide] | > 100 |
| CNC(=O)C(C(=O)NO)N(C)C(=O)c1ccc(-c2ccc(OCCCNc3ccccc3)cc2)cc1 (stereo not shown) [Compound 75, N-hydroxy-N′-methyl-2-[methyl({4′-[3-(phenylamino)propoxy]biphenyl-4-yl}carbonyl)amino]propanediamide] | < 10 |
| CN(C(=O)c1ccc(-c2ccccc2)cc1)C(C(=O)NO)C(=O)NCCc1ccccc1 (stereo not shown) [Compound 76, 2-[(biphenyl-4-ylcarbonyl)(methyl)amino]-N-hydroxy-N′-(2-phenylethyl)propanediamide] | > 100 |
| CCCS(=O)(=O)Nc1ccc(-c2ccc(C(=O)N(C)C(C(=O)NC)C(=O)NO)cc2)cc1 (stereo not shown) [Compound 78, N-hydroxy-N′-methyl-2-[methyl({4′-[(propylsulfonyl)amino]biphenyl-4-yl}carbonyl)amino]propanediamide] | 10 to 100 |
| CNC(=O)C(C(=O)NO)N(C)C(=O)c1ccc(-c2ccc(NCC3CC3)cc2)cc1 (stereo not shown) [Compound 79, 2-[({4′-[(cyclopropylmethyl)amino]biphenyl-4-yl}carbonyl)(methyl)amino]-N-hydroxy-N′-methylpropanediamide] | < 10 |
| CN(C)C(=O)C(C(=O)NO)N(C)C(=O)c1ccc(-c2ccccc2)cc1 (stereo not shown) [Compound 80, 2-[(biphenyl-4-ylcarbonyl)(methyl)amino]-N′-hydroxy-N,N-dimethylpropanediamide] | > 100 |
| CNC(=O)C(C(=O)NO)N(C)C(=O)c1ccc(-c2ccc3c(c2)OCCO3)cc1 (stereo not shown) [Compound 81, 2-{[4-(2,3-dihydro-1,4-benzodioxin-6-yl)benzoyl](methyl)amino}-N-hydroxy-N′-methylpropanediamide] | < 10 |
| CNC(=O)C(C(=O)NO)N(C)C(=O)c1ccc(-c2ccc3c(c2)N(C)C(=O)CO3)cc1 (stereo not shown) [Compound 82, N-hydroxy-N′-methyl-2-{methyl[4-(4-methyl-3-oxo-3,4-dihydro-2H-1,4-benzoxazin-6-yl)benzoyl]amino}propanediamide] | < 10 |
| CNC(=O)C(C(=O)NO)N(C)C(=O)c1ccc(-c2ccc(OC(F)(F)C(F)F)cc2)cc1 (stereo not shown) [Compound 83, N-hydroxy-N′-methyl-2-(methyl {[4′-(1,1,2,2-tetrafluoroethoxy)biphenyl-4-yl]carbonyl}amino)propanediamide] | < 10 |
| CNC(=O)C(C(=O)NO)N(C)C(=O)c1ccc(-c2ccc(OCCCN3CCN(c4ccccc4)CC3)cc2)cc1 (stereo not shown) [Compound 84, N-hydroxy-N′-methyl-2-[methyl({4′-[3-(4-phenylpiperazin-1-yl)propoxy]biphenyl-4-yl}carbonyl)amino]propanediamide] | < 10 |
| CNC(=O)C(C(=O)NO)N(C)C(=O)c1ccc(-c2ccc(N(C)CC3CC3)cc2)cc1 (stereo not shown) [Compound 85, 2-[({4′-[(cyclopropylmethyl)(methyl)amino]biphenyl-4-yl}carbonyl)(methyl)amino]-N-hydroxy-N′-methylpropanediamide] | < 10 |
| CNC(=O)C(C(=O)NO)N(C)C(=O)c1ccc(-c2ccc(NCCCN3CCOCC3)cc2)cc1 (stereo not shown) [Compound 86, N-hydroxy-N′-methyl-2-{methyl[(4′-{[3-(morpholin-4-yl)propyl]amino}biphenyl-4-yl)carbonyl]amino}propanediamide] | 10 to 100 |
